Patent publication US20190262347A1, “COMPOSITION COMPRISING COMBINATION OF EPICATECHIN AND ANTI-CANCER COMPOUND” (SPHAERA PHARMA PVT. LTD., priority 2016, published 2019)

Tested on: HCT116 induced xenograft
Experiment: 21 days efficacy study in HCT116 induced xenograft model in mice
Format: in vivo
Conditions: 1004 5 mpk, epicatechin 30 mpk
Experimental: Anticancer potential of epicatechin in combination with a PI3K/mTOR inhibitor is evaluated against cancer xenograft model in immunocompromised mice. CD1 nude mice are dosed for a period of 21 days with vehicle control, PI3K/mTOR inhibitor and a combination of PI3K/mTORinhibitor and epicatechin. […] The results are presented at Table 2, Table 3 and FIGS. 1a and 1b.

Structure (SMILES): C[C@H]1COCCN1c1nc(Oc2ccc(C(=O)N(C)C)cc2F)nc(-c2ccc(N)nc2)n1 [Compound 1004, (S)-4-((4-(6-aminopyridin-3-yl)-6-(3-methylmorpholino)-1,3,5-triazin-2-yl)oxy)-3-fluoro-N,N-dimethylbenzamide]
- T/C % (Mean), Treated/Control on 21st day (CD1 nude mice, HCT116 xenograft, 21st day, oral): 29%
- TGI % (Mean), tumor growth inhibition (CD1 nude mice, HCT116 xenograft, dosed 21 days, oral): 80%
- Tumor weight (HCT116 xenograft in mice): 0.72 g
